Experimental data: US11377423B2, “Inhibitors of histone deacetylase” (The Broad Institute, Inc., priority 2012, dated 2022)

Test system: INS-1E cells
Test: ROS formation (CM-H2DCFDA probe)
Assay type: cell-based, rat
Settings: 10 μM, GLT, 48 hrs
Protocol: INS-1E cells (50,000 cells/well) were seeded in 96-well plates in 100 uL complete medium. Two days after incubation, medium was removed and cells exposed to 100 uL medium/well with the indicated concentrations of palmitate, glucose, test compounds and/or vehicle. After 24 hours, cells were aspirated and incubated for 45 min in phenol […] RPMI (Invitrogen) containing 10 μM CM-H2DCFDA probe (Molecular Probes). Wells were subsequently washed twice with phenol red-free RMPI, incubated for 3 min with Hoechst 33342 (10 ug/mL) in phenol red-free media, followed by a final washing step. Fluorescence was captured by an IX Micro automated fluorescence microscope (Molecular Devices) and quantification of ROS per cell was analyzed using MetaXpress software (Molecular Devices). Each condition was assayed in five biological replicates. Glucolipotoxicity causes oxidative stress in β cells via increased ROS formation from mitochondria. […] ROS formation per cell (48 hrs) was measured using the CM-H2DCFDA probe and Hoechst staining. Data are presented as fold to CTRL+SEM n=3-4, ns=not significant, **p<0.01, ***p<0.001 vs unexposed cells; #p<0.05, ##p<0.01, vs. GLT treated cells, ANOVA with Tukey corrected test.

CC(=O)Nc1ccc(C(=O)Nc2ccc(F)cc2N)cc1 [Compound 1, 4-acetamido-N-(2-amino-4-fluorophenyl)benzamide]
glucolipotoxicity-induced ROS formation: reduces glucolipotoxicity-induced ROS formation
